Measured values from article PMC10177510, “A Multicenter, Open-Label, Phase I/II Study of FN-1501 in Patients with Advanced Solid Tumors” (Cancers, 2023).

Assay: Phase I/II dose escalation: safety and tolerability (DLT, TEAE)
Format: in vivo
Experimental: This Phase 1/2, FIH, open-label, multi-center, single-arm, dose-escalation study was conducted in pts with histologically or cytologically confirmed advanced solid tumors or R/R AML.
In the absence of worrisome toxicity, the remaining pts could be enrolled and dosed in that cohort. Safety evaluations were performed by investigators, the medical monitor, and the Sponsor. A Safety Monitoring Committee determined dose levels to be administered during dose escalation based on data available from the current and previous dose levels.

SMILES: CN1CCN(Cc2ccc(NC(=O)c3[nH]ncc3Nc3ncnc4[nH]ccc34)cc2)CC1 [FN-1501]
- Dose-Limiting Toxicity (2.5 mg/day, 4 patients): 0
- Abdominal pain, patients with event (2.5 mg/day, N = 4): 1
- Back pain, patients with event (2.5 mg/day, N = 4): 1
- Constipation, patients with event (2.5 mg/day, N = 4): 0
- Decreased appetite, patients with event (2.5 mg/day, N = 4): 1
- Diarrhea, patients with event (2.5 mg/day, N = 4): 0
- Dizziness, patients with event (2.5 mg/day, N = 4): 0
- Dyspnea, patients with event (2.5 mg/day, N = 4): 1
- Fatigue, Grade ≥ 3 TEAE, n (%) (2.5 mg/day, N = 4): 1 (25)
- Fatigue, patients with event (2.5 mg/day, N = 4): 1
- Infusion-related reaction, patients with event (2.5 mg/day, N = 4): 0
- Nausea, patients with event (2.5 mg/day, N = 4): 1
- Oedema peripheral, patients with event (2.5 mg/day, N = 4): 1
- Pyrexia, patients with event (2.5 mg/day, N = 4): 0
- Total number of TEAEs (2.5 mg/day, N = 4): 20
- Total patients with at least 1 TEAE (2.5 mg/day, N = 4): 4
- Vomiting, patients with event (2.5 mg/day, N = 4): 1
- Dose-Limiting Toxicity (5 mg/day, 3 patients): 0
- Abdominal pain, patients with event (5 mg/day, N = 3): 1
- Back pain, patients with event (5 mg/day, N = 3): 0
- Constipation, patients with event (5 mg/day, N = 3): 1
- Decreased appetite, patients with event (5 mg/day, N = 3): 0
- Diarrhea, patients with event (5 mg/day, N = 3): 1
- Diarrhoea, Grade ≥ 3 TEAE, n (%) (5 mg/day, N = 3): 1
- Dizziness, patients with event (5 mg/day, N = 3): 0
- Dyspnea, patients with event (5 mg/day, N = 3): 0
- Fatigue, patients with event (5 mg/day, N = 3): 1
- Infusion-related reaction, patients with event (5 mg/day, N = 3): 1
- Nausea, patients with event (5 mg/day, N = 3): 1
- Oedema peripheral, patients with event (5 mg/day, N = 3): 1
- Pyrexia, patients with event (5 mg/day, N = 3): 1
- Small intestinal obstruction, Grade ≥ 3 TEAE, n (%) (5 mg/day, N = 3): 1 (33)
- Total number of TEAEs (5 mg/day, N = 3): 23
- Total patients with at least 1 TEAE (5 mg/day, N = 3): 3
- Vomiting, patients with event (5 mg/day, N = 3): 1
- Dose-Limiting Toxicity (10 mg/day, 5 patients): 0
- Abdominal pain, patients with event (10 mg/day, N = 5): 0
- Back pain, patients with event (10 mg/day, N = 5): 0
- Bacterial sepsis, Grade ≥ 3 TEAE, n (%) (10 mg/day, N = 5): 1
- Constipation, patients with event (10 mg/day, N = 5): 1
- Decreased appetite, patients with event (10 mg/day, N = 5): 0
- Delirium, Grade ≥ 3 TEAE, n (%) (10 mg/day, N = 5): 1
- Diarrhea, patients with event (10 mg/day, N = 5): 0
- Dizziness, patients with event (10 mg/day, N = 5): 0
- Dyspnea, patients with event (10 mg/day, N = 5): 1
- Fatigue, patients with event (10 mg/day, N = 5): 2
- Infusion-related reaction, patients with event (10 mg/day, N = 5): 0
- Lung infection, Grade ≥ 3 TEAE, n (%) (10 mg/day, N = 5): 1
- Nausea, patients with event (10 mg/day, N = 5): 1
- Oedema peripheral, patients with event (10 mg/day, N = 5): 0
- Pyrexia, patients with event (10 mg/day, N = 5): 0
- Stomatitis, Grade ≥ 3 TEAE, n (%) (10 mg/day, N = 5): 1
- Total number of TEAEs (10 mg/day, N = 5): 25
- Total patients with at least 1 TEAE (10 mg/day, N = 5): 4
- Vomiting, patients with event (10 mg/day, N = 5): 1
- Dose-Limiting Toxicity (15 mg/day, 3 patients): 0
- Abdominal pain, patients with event (15 mg/day, N = 3): 1
- Back pain, patients with event (15 mg/day, N = 3): 1
- Catheter site infection, Grade ≥ 3 TEAE, n (%) (15 mg/day, N = 3): 1
- Constipation, patients with event (15 mg/day, N = 3): 1
- Decreased appetite, patients with event (15 mg/day, N = 3): 0
- Diarrhea, patients with event (15 mg/day, N = 3): 2
- Dizziness, patients with event (15 mg/day, N = 3): 2
- Dyspnea, patients with event (15 mg/day, N = 3): 0
- Fatigue, patients with event (15 mg/day, N = 3): 0
- Infusion-related reaction, patients with event (15 mg/day, N = 3): 1
- Nausea, patients with event (15 mg/day, N = 3): 2
- Oedema peripheral, patients with event (15 mg/day, N = 3): 0
- Pyrexia, patients with event (15 mg/day, N = 3): 1
- Total number of TEAEs (15 mg/day, N = 3): 41
- Total patients with at least 1 TEAE (15 mg/day, N = 3): 3
- Vascular access complication, Grade ≥ 3 TEAE, n (%) (15 mg/day, N = 3): 1
- Vomiting, patients with event (15 mg/day, N = 3): 0
- Dose-Limiting Toxicity (22.5 mg/day, 4 patients): 0
- Abdominal pain, Grade ≥ 3 TEAE, n (%) (22.5 mg/day, N = 4): 1
- Abdominal pain, patients with event (22.5 mg/day, N = 4): 2
- Back pain, patients with event (22.5 mg/day, N = 4): 0
- Constipation, patients with event (22.5 mg/day, N = 4): 1
- Decreased appetite, patients with event (22.5 mg/day, N = 4): 2
- Diarrhea, patients with event (22.5 mg/day, N = 4): 0
- Dizziness, patients with event (22.5 mg/day, N = 4): 1
- Dyspnea, patients with event (22.5 mg/day, N = 4): 1
- Fatigue, patients with event (22.5 mg/day, N = 4): 2
- Infusion-related reaction, patients with event (22.5 mg/day, N = 4): 0
- Nausea, patients with event (22.5 mg/day, N = 4): 1
- Oedema peripheral, patients with event (22.5 mg/day, N = 4): 0
- Pyrexia, patients with event (22.5 mg/day, N = 4): 1
- Total number of TEAEs (22.5 mg/day, N = 4): 26
- Total patients with at least 1 TEAE (22.5 mg/day, N = 4): 4
- Vomiting, patients with event (22.5 mg/day, N = 4): 1
- Dose-Limiting Toxicity (30 mg/day, 3 patients): 0
- Abdominal pain, patients with event (30 mg/day, N = 3): 1
- Back pain, patients with event (30 mg/day, N = 3): 0
- Constipation, patients with event (30 mg/day, N = 3): 0
- Decreased appetite, patients with event (30 mg/day, N = 3): 0
- Diarrhea, patients with event (30 mg/day, N = 3): 1
- Dizziness, patients with event (30 mg/day, N = 3): 0
- Dyspnea, patients with event (30 mg/day, N = 3): 0
- Fatigue, patients with event (30 mg/day, N = 3): 1
- Hyponatraemia, Grade ≥ 3 TEAE, n (%) (30 mg/day, N = 3): 1
- Infusion-related reaction, patients with event (30 mg/day, N = 3): 0
- Nausea, patients with event (30 mg/day, N = 3): 1
- Oedema peripheral, patients with event (30 mg/day, N = 3): 0
- Pyrexia, patients with event (30 mg/day, N = 3): 0
- Syncope, Grade ≥ 3 TEAE, n (%) (30 mg/day, N = 3): 1 (33)
- Total number of TEAEs (30 mg/day, N = 3): 16
- Total patients with at least 1 TEAE (30 mg/day, N = 3): 3
- Vomiting, patients with event (30 mg/day, N = 3): 0
- Dose-Limiting Toxicity (40 mg/day, 4 patients): 0
- Abdominal distension, Grade ≥ 3 TEAE, n (%) (40 mg/day, N = 4): 1 (25)
- Abdominal pain, patients with event (40 mg/day, N = 4): 0
- Back pain, patients with event (40 mg/day, N = 4): 0
- Blood alkaline phosphatase increased, Grade ≥ 3 TEAE, n (%) (40 mg/day, N = 4): 1 (25)
- Blood bilirubin increased, Grade ≥ 3 TEAE, n (%) (40 mg/day, N = 4): 1 (25)
- Constipation, patients with event (40 mg/day, N = 4): 0
- Decreased appetite, patients with event (40 mg/day, N = 4): 0
- Diarrhea, patients with event (40 mg/day, N = 4): 1
- Dizziness, patients with event (40 mg/day, N = 4): 0
- Dyspnea, patients with event (40 mg/day, N = 4): 0
- Fatigue, patients with event (40 mg/day, N = 4): 1
- Hyponatraemia, Grade ≥ 3 TEAE, n (%) (40 mg/day, N = 4): 1
- Infusion-related reaction, patients with event (40 mg/day, N = 4): 0
- Nausea, patients with event (40 mg/day, N = 4): 0
- Oedema peripheral, patients with event (40 mg/day, N = 4): 1
- Peritonitis, Grade ≥ 3 TEAE, n (%) (40 mg/day, N = 4): 1 (25)
- Pyrexia, patients with event (40 mg/day, N = 4): 1
- Total number of TEAEs (40 mg/day, N = 4): 21
- Total patients with at least 1 TEAE (40 mg/day, N = 4): 4
- Vomiting, patients with event (40 mg/day, N = 4): 1
- Dose-Limiting Toxicity (54 mg/day, 3 patients): 0
- Abdominal pain, patients with event (54 mg/day, N = 3): 0
- Anaemia, Grade ≥ 3 TEAE, n (%) (54 mg/day, N = 3): 1 (33)
- Back pain, patients with event (54 mg/day, N = 3): 0
- Constipation, patients with event (54 mg/day, N = 3): 0
- Decreased appetite, patients with event (54 mg/day, N = 3): 0
- Diarrhea, patients with event (54 mg/day, N = 3): 0
- Dizziness, patients with event (54 mg/day, N = 3): 0
- Dyspnea, patients with event (54 mg/day, N = 3): 0
- Fatigue, Grade ≥ 3 TEAE, n (%) (54 mg/day, N = 3): 1 (33)
- Fatigue, patients with event (54 mg/day, N = 3): 2
- Infusion-related reaction, patients with event (54 mg/day, N = 3): 1
- Nausea, patients with event (54 mg/day, N = 3): 0
- Oedema peripheral, patients with event (54 mg/day, N = 3): 0
- Pyrexia, patients with event (54 mg/day, N = 3): 0
- Total number of TEAEs (54 mg/day, N = 3): 12
- Total patients with at least 1 TEAE (54 mg/day, N = 3): 3
- Vomiting, patients with event (54 mg/day, N = 3): 0
- Dose-Limiting Toxicity (72 mg/day, 3 patients): 0
- Abdominal pain, patients with event (72 mg/day, N = 3): 1
- Back pain, patients with event (72 mg/day, N = 3): 1
- Constipation, patients with event (72 mg/day, N = 3): 0
- Decreased appetite, patients with event (72 mg/day, N = 3): 0
